In PubChem BioAssay AID328 (DTP/NCI, 2004):
Values joined by “and” are separate entries in the source; they are usually repeats but may differ in a detail not shown here. Equal values may be shown once. Inconclusive results and toxic doses are left out.

System: BDF1 mice, P388 leukemia ip, median survival T/C
Experiment: NCI In Vivo Anticancer Drug Screen. Data for tumor model P388 Leukemia (intraperitoneal) in B6D2F1 (BDF1) mice
Conditions: endpoint: median survival time, higher = longer survival
In short: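 T/C = treated-group survival ÷ vehicle-control survival; tumour transplanted into mice before dosing.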

[1] = dose: 50.0 mg/kg/injection, schedule: Q01DX009 (ip), vehicle: Klucel (hydroxypropylcellulose) (HPC)
[2] = dose: 100.0 mg/kg/injection, schedule: Q01DX009 (ip), vehicle: Klucel (hydroxypropylcellulose) (HPC)
[3] = dose: 25.0 mg/kg/injection, schedule: Q01DX009 (ip), vehicle: saline
[4] = dose: 50.0 mg/kg/injection, schedule: Q01DX009 (ip), vehicle: saline
[5] = dose: 100.0 mg/kg/injection, schedule: Q01DX009 (ip), vehicle: saline
[6] = dose: 12.5 mg/kg/injection, schedule: Q01DX009 (ip), vehicle: Klucel (hydroxypropylcellulose) (HPC)
[7] = dose: 25.0 mg/kg/injection, schedule: Q01DX009 (ip), vehicle: Klucel (hydroxypropylcellulose) (HPC)
[8] = dose: 100.0 mg/kg/injection, schedule: Q04DX003 (ip), vehicle: Klucel (hydroxypropylcellulose) (HPC)
[9] = dose: 50.0 mg/kg/injection, schedule: Q01DX009 (ip), vehicle: saline with Tween-80
[10] = dose: 100.0 mg/kg/injection, schedule: Q01DX009 (ip), vehicle: saline with Tween-80
[11] = dose: 200.0 mg/kg/injection, schedule: Q01DX009 (ip), vehicle: saline with Tween-80
[12] = dose: 100.0 mg/kg/injection, schedule: Q04DX003 (ip), vehicle: saline with Tween-80
[13] = dose: 200.0 mg/kg/injection, schedule: Q04DX003 (ip), vehicle: saline with Tween-80
[14] = dose: 400.0 mg/kg/injection, schedule: Q04DX003 (ip), vehicle: saline with Tween-80
[15] = dose: 200.0 mg/kg/injection, schedule: Q01DX009 (ip), vehicle: Klucel (hydroxypropylcellulose) (HPC)
[16] = dose: 400.0 mg/kg/injection, schedule: Q01DX009 (ip), vehicle: Klucel (hydroxypropylcellulose) (HPC)

With O=C1NC(c2cccc3ccccc23)Nc2ccc(Cl)cc21 (stereo not given) the T/C [1] was 160 % of control, the T/C (dose: 75.0 mg/kg/injection, schedule: Q01DX009 (ip), vehicle: Klucel (hydroxypropylcellulose) (HPC)) was 155 % of control and the T/C [2] was 111 % of control.
CCCCCC(CN(C)C)C(=O)/C=C/c1ccc(Cl)c(Cl)c1 (stereo not given) was tested, and the T/C (dose: 2.75 mg/kg/injection, schedule: Q01DX009 (ip), vehicle: saline) was 110 % of control, the T/C (dose: 4.12 mg/kg/injection, schedule: Q01DX009 (ip), vehicle: saline) was 105 % of control and the T/C (dose: 50.0 mg/kg/injection, schedule: Q01DX001 (ip), vehicle: saline) was 100 % of control.
With CN(C)CCC12CC(=O)CCC1C=Cc1ccc(O)c(O)c12 (stereo not given) the T/C [3] was 100 % of control, the T/C [4] was 95 % of control and the T/C [5] was 91 % of control.
For CN(C)C(=O)c1cccc(COc2ccc(N3C(N)=NC(N)=NC3(C)C)cc2Cl)c1, the T/C (dose: 4.0 mg/kg/injection, schedule: Q03HX024 (ip), vehicle: saline) was 100 % of control, the T/C (dose: 8.0 mg/kg/injection, schedule: Q03HX016 (ip), vehicle: saline) was 100 % of control and the T/C (dose: 16.0 mg/kg/injection, schedule: Q01DX009 (ip), vehicle: saline) was 90 % of control. The T/C (dose: 16.0 mg/kg/injection, schedule: Q01DX009 (sc), vehicle: saline) was 100 % of control, the T/C (dose: 16.0 mg/kg/injection, schedule: Q03HX016 (ip), vehicle: saline) was 100 % of control and the T/C (dose: 16.0 mg/kg/injection, schedule: Q03HX024 (ip), vehicle: saline) was 118 % of control. For the same compound, the T/C (dose: 32.0 mg/kg/injection, schedule: Q01DX009 (ip), vehicle: saline) was 118 % of control, the T/C (dose: 32.0 mg/kg/injection, schedule: Q01DX009 (sc), vehicle: saline) was 90 % of control and the T/C (dose: 32.0 mg/kg/injection, schedule: Q03HX016 (ip), vehicle: saline) was 118 % of control. For the same compound, the T/C (dose: 32.0 mg/kg/injection, schedule: Q04DX003 (ip), vehicle: saline) was 100 % of control, the T/C (dose: 64.0 mg/kg/injection, schedule: Q01DX001 (ip), vehicle: saline) was 100 % of control and the T/C (dose: 64.0 mg/kg/injection, schedule: Q01DX001 (sc), vehicle: saline) was 90 % of control. The T/C (dose: 64.0 mg/kg/injection, schedule: Q01DX009 (oral), vehicle: saline) was 90 % of control, the T/C (dose: 64.0 mg/kg/injection, schedule: Q04DX003 (ip), vehicle: saline) was 100 % of control and the T/C (dose: 64.0 mg/kg/injection, schedule: Q08DX002 (ip), vehicle: saline) was 100 % of control. For the same compound, the T/C (dose: 128.0 mg/kg/injection, schedule: Q01DX001 (oral), vehicle: saline) was 90 % of control, the T/C (dose: 128.0 mg/kg/injection, schedule: Q01DX001 (sc), vehicle: saline) was 100 % of control and the T/C (dose: 128.0 mg/kg/injection, schedule: Q01DX009 (oral), vehicle: saline) was 95 % of control. For the same compound, the T/C (dose: 256.0 mg/kg/injection, schedule: Q01DX001 (oral), vehicle: saline) was 95 % of control, the T/C (dose: 256.0 mg/kg/injection, schedule: Q01DX001 (sc), vehicle: saline) was 90 % of control and the T/C (dose: 512.0 mg/kg/injection, schedule: Q01DX001 (oral), vehicle: saline) was 90 % of control. For the same compound, the T/C (dose: 512.0 mg/kg/injection, schedule: Q01DX001 (sc), vehicle: saline) was 100 % of control and the T/C (dose: 1024.0 mg/kg/injection, schedule: Q01DX001 (oral), vehicle: saline) was 95 % of control.
For O=C(O)/C=C/C(=O)Nc1cccc(Oc2ccc([N+](=O)[O-])cc2[N+](=O)[O-])c1, the T/C [5] was 118 % of control, the T/C (dose: 100.0 mg/kg/injection, schedule: Q04DX003 (ip), vehicle: other) was 100 % of control and the T/C (dose: 200.0 mg/kg/injection, schedule: Q01DX009 (ip), vehicle: saline) was 122 % of control. For the same compound, the T/C (dose: 200.0 mg/kg/injection, schedule: Q04DX003 (ip), vehicle: other) was 100 % of control and the T/C (dose: 400.0 mg/kg/injection, schedule: Q04DX003 (ip), vehicle: other) was 91 % of control.
For CC1(C)N=C(N)N=C(N)N1c1ccc(OCc2ccc(C(=O)Nc3cccc(S(=O)(=O)F)c3)cc2)c(Cl)c1, the T/C (dose: 6.25 mg/kg/injection, schedule: Q01DX009 (ip), vehicle: Klucel (hydroxypropylcellulose) (HPC)) was 206 % of control, the T/C (dose: 6.25 mg/kg/injection, schedule: Q04DX003 (ip), vehicle: Klucel (hydroxypropylcellulose) (HPC)) was 163 % of control and the T/C [6] was 247 % of control. The T/C (dose: 12.5 mg/kg/injection, schedule: Q04DX003 (ip), vehicle: Klucel (hydroxypropylcellulose) (HPC)) was 162 % of control and 184 % of control, the T/C [7] was 308 % of control and the T/C (dose: 25.0 mg/kg/injection, schedule: Q04DX003 (ip), vehicle: Klucel (hydroxypropylcellulose) (HPC)) was 186 % of control and 223 % of control. The T/C [1] was 110 % of control, the T/C (dose: 50.0 mg/kg/injection, schedule: Q04DX003 (ip), vehicle: Klucel (hydroxypropylcellulose) (HPC)) was 263 % of control and 189 % of control and the T/C [2] was 95 % of control. The T/C [8] was 95 % of control and 119 % of control.
For CC(C)=CCc1cc(O)ccc1O, the T/C (dose: 6.25 mg/kg/injection, schedule: Q01DX009 (ip), vehicle: saline with Tween-80) was 108 % of control, the T/C (dose: 25.0 mg/kg/injection, schedule: Q01DX009 (ip), vehicle: saline with Tween-80) was 112 % of control and the T/C [9] was 101 % of control.
With O=C(Nc1ccccc1)OCc1ccc(OCc2ccccc2)cc1 the T/C [9] was 89 % of control, the T/C [10] was 122 % of control and the T/C [11] was 105 % of control.
For COC(=O)C12OCC34C(CC5=C(C)C(=O)C(O)=CC5(C)C3C(O)C1O)OC(=O)C(OC(=O)c1ccccc1)C24 (stereo not given), the T/C (dose: 0.04 mg/kg/injection, schedule: Q01DX009 (ip), vehicle: saline + alcohol) was 111 % of control and the T/C (dose: 4.0 mg/kg/injection, schedule: Q01DX009 (ip), vehicle: saline + alcohol) was 100 % of control.
O=C1NN=C(c2ccc(Br)cc2)CS1 was tested, and the T/C [9] was 100 % of control and the T/C [10] was 102 % of control.
CN(C)CCCNc1cc(/C=C/c2cccc3ccccc23)nc2ccccc12 was tested, and the T/C [9] was 95 % of control, the T/C [10] was 88 % of control and the T/C [11] was 101 % of control.
For COc1ccc(CN2CCN(Cc3ccc(OC)c(OC)c3)C2c2ccc(OC)c(OC)c2)cc1OC, the T/C [10] was 109 % of control, the T/C [12] was 105 % of control and the T/C [11] was 100 % of control. For the same compound, the T/C [13] was 105 % of control, the T/C (dose: 400.0 mg/kg/injection, schedule: Q01DX009 (ip), vehicle: saline with Tween-80) was 100 % of control and the T/C [14] was 95 % of control.
In the case of CCC(=O)NC1=CC(=O)c2ccccc2C1=O, the T/C [6] is reported as 109 % of control, the T/C [7] is reported as 109 % of control and the T/C [1] is reported as 122 % of control.
In the case of S=c1nc[nH]c2c1ncn2CN1CCOCC1, the T/C [7] is reported as 110 % of control.
In the case of CC(=O)NS(=O)(=O)c1ccc(NC(=O)/C=C/C(=O)O)cc1, the T/C [12] is reported as 104 % of control, the T/C [13] is reported as 118 % of control and the T/C [14] is reported as 104 % of control.
With Nc1ccc(CCCCc2ccccc2)cc1 the T/C (dose: 7.03 mg/kg/injection, schedule: Q04DX003 (ip), vehicle: saline) was 104 % of control, the T/C (dose: 12.5 mg/kg/injection, schedule: Q01DX009 (ip), vehicle: saline) was 109 % of control and the T/C (dose: 14.06 mg/kg/injection, schedule: Q04DX003 (ip), vehicle: saline) was 113 % of control. For the same compound, the T/C [3] was 113 % of control, the T/C (dose: 28.12 mg/kg/injection, schedule: Q04DX003 (ip), vehicle: saline) was 109 % of control and the T/C [4] was 113 % of control. The T/C (dose: 56.25 mg/kg/injection, schedule: Q04DX003 (ip), vehicle: saline) was 116 % of control and the T/C (dose: 75.0 mg/kg/injection, schedule: Q01DX009 (ip), vehicle: saline) was 109 % of control.
In the case of CC/C(=C\c1cccc([N+](=O)[O-])c1)C(=O)O, the T/C [2] is reported as 100 % of control, the T/C [15] is reported as 100 % of control and the T/C [16] is reported as 109 % of control.
In the case of Oc1c(I)cc(Cl)c2cccnc12, the T/C [6] is reported as 115 % of control, the T/C [7] is reported as 115 % of control and the T/C [1] is reported as 120 % of control.
With OCC(F)(F)C(F)(F)C(F)(F)C(F)F the T/C [2] was 95 % of control, the T/C [8] was 104 % of control and the T/C [15] was 105 % of control. For the same compound, the T/C (dose: 200.0 mg/kg/injection, schedule: Q04DX003 (ip), vehicle: Klucel (hydroxypropylcellulose) (HPC)) was 100 % of control, the T/C [16] was 115 % of control and the T/C (dose: 400.0 mg/kg/injection, schedule: Q04DX003 (ip), vehicle: Klucel (hydroxypropylcellulose) (HPC)) was 90 % of control.
With c1ccc(-n2nc3c(c2OCCN2CCCC2)CCCc2ccccc2-3)cc1 the T/C (dose: 66.0 mg/kg/injection, schedule: Q04DX003 (ip), vehicle: saline with Tween-80) was 108 % of control and the T/C [12] was 104 % of control and 116 % of control.
